Measured values reported in patent US5374601A, “Thermal transfer sheet” (Dai Nippon Printing Co., Ltd., priority 1991, dated 1994).

Tested on: Salmonella TA1538 and TA98
Experiment: Ames test (preincubation method, metabolically activated, +x9mix)
Settings: 0 to 5 mg; for Increase (times): maximum increase in the colony of the sample as compared with the solvent control: acetone as solvent control; for Toxicity (mutagenicity): judged against solvent control
Experimental: Ames test was conducted as an identical amest test with respect to representative examples of the intermediate of the present invention and control dyes having the same structure as that of the intermediate of the present invention, except that the ring was a pyridine ring instead of the phenyl ring.
The ames test was conducted in such a state that Salmonella TA1538 and TA98 were metabolically activated by a preincubation method (+x9mix). The dye was used in contentrations in five grades in the range of from 0 to 5 mg. Acetone was used as the solvent control. The toxicity was judged based on the maximum increase in the colony of the sample as compared with the solvent control. Specifically, when the increase in the reversion colony was twice or more as compared with that in the case of the control, the mutagenicity was judged as positive, while when the increase in the reversion colony was less than twice as compared with that in the case of the control, the mutagenicity was judged as negative.

CCN(CC)c1ccc(N=Nc2cn(-c3ccccc3)nc2C)cn1
Increase (times): maximum increase in the colony of the sample as compared with the solvent control: 1.5 times | Toxicity (mutagenicity): neg- ative

CCN(CC)c1ccc(N=C2C=C(NC(C)=O)C(=O)C(Cl)=C2C)cn1
Increase (times): maximum increase in the colony of the sample as compared with the solvent control: 1.5 times | Toxicity (mutagenicity): neg- ative

CCN(CC)c1ccc(N=Nc2cn(-c3ccccc3)nc2C)cc1
Increase (times): maximum increase in the colony of the sample as compared with the solvent control: 2.2 times | Toxicity (mutagenicity): pos- itive

CCN(CC)c1ccc(N=C2C=C(NC(C)=O)C(=O)C(Cl)=C2C)cc1
Increase (times): maximum increase in the colony of the sample as compared with the solvent control: 1.7 times | Toxicity (mutagenicity): neg- ative
